Results on 16 compounds are retold here after PubChem BioAssay AID2060599 (Molecular Pharmacology Branch, DTP, NCI, 2025).

The term viability, T/C denotes the ratio of treated to control. Usually IC50 stands for the point on the concentration scale where inhibition reaches its midpoint.

For this test, the system named is 817829-284-R-J1-PDC complex spheroids, viability. The test is described as follows: Anticancer human tumor 817829-284-R-J1-PDC patient-derived colon adenocarcinoma cell line growth inhibition [CLK]. As to conditions: for viability, T/C: stronger effect = lower value. The source says: A high-throughput screen of multi-cell type tumor spheroids was designed to identify active combinations of […] and targeted small molecules. Complex spheroids include a stromal component modeled by human endothelial cells (HUVEC) and fibroblasts modeled by human mesenchymal stem cells (MSCs). The concentration ranges selected for each drug and investigational agent were based upon clinically achievable concentrations if the clinical Cmax of the agent was known.
Compounds. The drugs and investigational agents: cirtuvivint (SM08502; NSC835563), CC-671 (NSC850746), vemurafenib (NSC761431), tapotoclax (NSC804041), sotorasib (NSC818433), adagrasib (NSC831453), MRTX-1133 (NSC836407), BAY2416964 (NSC825713), copanlisib (NSC816437), inavolisib (NSC800729), abemaciclib (NSC768073), osimertinib (NSC779217), entinostat (NSC756642), eltanexor (KPT-8602, NSC794443), venetoclax (NSC766270), ceralasertib (NSC777638), bortezomib (NSC756655), olaparib (NSC753686), talazoparib (NSC767125), alisertib (NSC759677), peposertib (NSC802822), gemcitabine (NSC613327), 5-fluorouracil (NSC19893), SN-38 (NSC673596), oxaliplatin (NSC266046), paclitaxel (NSC125973), and doxorubicin (NSC123127), were obtained from the National Cancer Institute (NCI) Developmental Therapeutics Program Chemical Repository. The FDA-approved anticancer drug set is available from the Developmental Therapeutics Program at https://dtp.cancer.gov/organization/dscb/obtaining/available plates.htm. […] The stock solutions were prepared in dimethyl sulfoxide (DMSO, Sigma-Aldrich, St. Louis, MO, cat. D2650), except for the platinum complexes which were prepared in saline (Quality Biological, Gaithersburg, MD, cat. 114-055-101), at 800-fold the tested concentration and stored at -70 degrees C prior to their use. All drugs and investigational agents were tested over a range starting from a high concentration at or near the clinical Cmax and decreasing in half-log increments. If the clinical Cmax for an agent had not been determined, the highest concentration tested was 10 microM.
Cell Culture. All cells were maintained in an incubator at 37 degrees C and 5% CO2 with 95% humidity. The PDC lines were cultured according to standard operating procedures established by the NCI PDMR. Briefly, all PDCs were thawed and cultured in Matrigel-coated flasks prepared with a working solution of 1X Ham's F-12 nutrient mix, without supplementation (Invitrogen, Waltham, MA, cat. 11765054), 100 U/mL penicillin-streptomycin (Invitrogen, cat. 15140122), and 2.5% Matrigel (Corning Inc., Corning, NY, cat. 354248) for the first three passages. The 947758-054-R-J2-PDC line was cultured in 6B/Colon 1A media, which includes advanced DMEM/F-12 (Thermo Fisher Scientific, cat. 12634028), 10 mM HEPES (Thermo Fisher Scientific, cat. 15630080), 1X GlutaMAX supplement (Thermo Fisher Scientific, cat. 35050061), 0.1 mg/mL primocin (InvivoGen, cat. ant-pm-2), 10% defined fetal bovine serum, heat inactivated (HyClone Laboratories Inc., cat. SH30070.03HI), 1.25 mM N-Acetyl-L-cysteine (Sigma-Aldrich, cat. A9165), 10 mM nicotinamide (Sigma-Aldrich, cat. N0636), 1X B-27 supplement (Thermo Fisher Scientific, cat. 17504044), 1X N-2 supplement (Thermo Fisher Scientific, cat. 17502048), and 10 microM Y-27632 dihydrochloride (Tocris Bioscience, cat. 1254). The 876862-298-R-J1-PDC was cultured in 6E media, which includes all 6B/Colon 1A media components plus 50% L-WRN conditioned media (ATCC, cat. CRL-3276), 50 ng/mL recombinant human EGF recombinant protein (hEGF; Thermo Fisher Scientific, cat. PHG0311), 10 ng/mL recombinant human fibroblast growth factor 10 (hGFG-10; PeproTech, cat. 100-26), 1 ng/mL recombinant human fibroblast growth factor 2 (hFGF-2; PeproTech, cat. 100-18B), and 1 µM prostaglandin E2 (PGE2; Tocris, cat. 2296). The 227483-062-R1-J1-PDC line was cultured in Panc media, containing all 6E components except hFGF-2, with the addition of 500 nM SB-431542 (Selleckchem, cat. S1067) and 10 nM gastrin (Tocris, cat. 3006). […]

Several values for one entry are separate records, joined by “and”; a condition that tells them apart may be missing. Identical values can stand only once.
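Note: spheroids exposed to the agents for seven days before readout.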

For the compound `C#Cc1c(F)ccc2cc(O)cc(-c3ncc4c(N5CC6CCC(C5)N6)nc(OCC56CCCN5CC(F)C6)nc4c3F)c12` (configuration not stated), the viability, T/C runs as follows: (compound 0.0316 µM) 126% and 105%; (compound 0.1 µM) 74% and 131%; (compound 0.316 µM) 116% and 80.9%; (compound 1 µM) 81.9% and 122%; (compound 3.16 µM) 60% and 100%; (compound 10 µM) 62.3% and 79.4%. The IC50 (curve of compound) is greater than 10 µM.
For `C=C(F)C(=O)N1CCN(c2nc(OCC3CCCN3C)nc3c2CCN(c2cccc4cccc(Cl)c24)C3)CC1CC#N` (configuration not stated), the viability, T/C is 99.4% and 105% (compound 0.0316 µM); 73% and 144% (compound 0.1 µM); 141% and 96.3% (compound 0.316 µM); 77.1% and 84.6% (compound 1 µM); 20.8% and 21.4% (compound 3.16 µM); 0.08% and 0.14% (compound 10 µM). For the same compound, the IC50 (curve of compound) is 1.77 µM and 1.85 µM.
As to `C=CC(=O)N1CCN(c2nc(=O)n(-c3c(C)ccnc3C(C)C)c3nc(-c4c(O)cccc4F)c(F)cc23)C(C)C1` (configuration not stated), the viability, T/C is 101% and 136% (compound 0.0316 µM); 97.2% and 101% (compound 0.1 µM); 101% and 92.9% (compound 0.316 µM); 100% (compound 1 µM); 101% (compound 3.16 µM); 57% and 87.9% (compound 10 µM). Besides, where the note is “curve of compound”, the concentration for half-maximal inhibition (IC50) was greater than 10 µM.
Turning to `C=CC(=O)Nc1cc(Nc2nccc(-c3cn(C)c4ccccc34)n2)c(OC)cc1N(C)CCN(C)C`, the viability, T/C reads like this: (compound 0.000949 µM) 108%; (compound 0.003 µM) 101%; (compound 0.00949 µM) 85.9%; (compound 0.03 µM) 72.9%; (compound 0.0949 µM) 99.5%; (compound 0.3 µM) 73.8%. In addition, the IC50 (curve of compound) was greater than 0.3 µM.
As for `CC(C)CC(NC(=O)C(Cc1ccccc1)NC(=O)c1cnccn1)B(O)O` (configuration not stated), the viability, T/C (compound 0.000949 µM) was 80.8% and 93.1%; the viability, T/C (compound 0.003 µM) was 4.56% and 1.33%; the viability, T/C (compound 0.00949 µM) is 0.1% and 0.36%; the viability, T/C (compound 0.03 µM) was 0.16% and 0.15%; the viability, T/C (compound 0.0949 µM) is 0.05% and 0.24%; the viability, T/C (compound 0.3 µM) was 0.08% and 0.2%. Also, where the note is “curve of compound”, the IC50 was 0.00151 µM and 0.00163 µM.
As for `CC(CO)NC(=O)c1cc(-c2ccc(Cl)cc2)nn(-c2cnn(C)c2)c1=O` (configuration not stated), the viability, T/C by setting is: (compound 0.0316 µM) 119% and 99.1%; (compound 0.1 µM) 68.1% and 82.7%; (compound 0.316 µM) 102% and 165%; (compound 1 µM) 108% and 100%; (compound 3.16 µM) 79.3% and 88.4%; (compound 10 µM) 42.8% and 52.4%. Further, under “curve of compound”, the 50% inhibitory concentration (IC50) is 7.96 µM and > 10 µM.
For `CC(Nc1ccc2c(c1)OCCn1cc(N3C(=O)OCC3C(F)F)nc1-2)C(N)=O` (configuration not stated), the viability, T/C was 62.2% and 116% (compound 0.0316 µM); 92% and 69.5% (compound 0.1 µM); 72.2% and 60.7% (compound 0.316 µM); 51.6% and 59.1% (compound 1 µM); 52.4% and 39.5% (compound 3.16 µM); 35.8% and 37.7% (compound 10 µM). In addition, where the note is “curve of compound”, the IC50 is 1.42 µM and 0.834 µM.
For the compound `CCCS(=O)(=O)Nc1ccc(F)c(C(=O)c2c[nH]c3ncc(-c4ccc(Cl)cc4)cc23)c1F`, the viability, T/C runs as follows: (compound 0.0316 µM) 86.7% and 79.4%; (compound 0.1 µM) 48.8% and 64.2%; (compound 0.316 µM) 66% and 89%; (compound 1 µM) 54.1% and 77%; (compound 3.16 µM) 52.5% and 59.8%; (compound 10 µM) 25.3% and 16.9%. For the same compound, the IC50 (curve of compound) was 1.21 µM and 4.11 µM.
In the case of `CCN1CCN(Cc2ccc(Nc3ncc(F)c(-c4cc(F)c5nc(C)n(C(C)C)c5c4)n3)nc2)CC1`, the viability, T/C is, setting by setting: (compound 0.00316 µM) 79.4%; (compound 0.01 µM) 55.3%; (compound 0.0316 µM) 57.5%; (compound 0.1 µM) 50.8%; (compound 0.316 µM) 85.4%; (compound 1 µM) 39.3%. Further, the IC50 (curve of compound) was greater than 1 µM.
As to `CCc1c2c(nc3ccc(O)cc13)-c1cc3c(c(=O)n1C2)COC(=O)[C@]3(O)CC`, the viability, T/C was 23.1% and 29.4% (compound 0.00316 µM); 17.5% and 16.5% (compound 0.01 µM); 13.9% and 16.5% (compound 0.0316 µM); 9.42% and 10.3% (compound 0.1 µM); 6.24% and 7.57% (compound 0.316 µM); 3.66% and 4.31% (compound 1 µM). In addition, the IC50 (curve of compound) was less than 0.00316 µM.
As to `CN1CCN(c2cc(C(=O)Nc3cc4cc(-c5cnn(C)c5)ccc4cn3)ccn2)CC1`, the viability, T/C is 70.5% [middle of 12 runs] (compound 0.0316 µM); 20% [middle of 12 runs] (compound 0.1 µM); 2.17% [middle of 12 runs] (compound 0.316 µM); 0.13% [middle of 8 runs] (compound 1 µM); 0.17% [middle of 7 runs] (compound 3.16 µM); 0.13% [middle of 8 runs] (compound 10 µM). Besides, for the setting “compound alone, run of 08/14/2023”, the IC50 is 49.5 nM [middle of 12 runs].
With `CNC(=O)c1ccc(Nc2nc(OC3CCCC3)c3c(-c4ccc5nc(C)oc5c4)c[nH]c3n2)c(OC)c1`, the viability, T/C is 33.6% [middle of 8 runs] (compound 0.0316 µM); 28.2% [middle of 8 runs] (compound 0.1 µM); 26.3% [middle of 8 runs] (compound 0.316 µM); 24.2% [middle of 8 runs] (compound 1 µM); 20.1% [middle of 8 runs] (compound 3.16 µM); 23.3% [middle of 8 runs] (compound 10 µM). Also, the IC50 (compound alone, run of 08/15/2023) is less than 0.0316 µM.
For the compound `COC1C=CCC(C)C(C)S(=O)(=O)NC(=O)c2ccc3c(c2)N(CC2CCC21)CC1(CCCc2cc(Cl)ccc21)CO3` (configuration not stated), the viability, T/C reads like this: (compound 0.0316 µM) 125% and 85.6%; (compound 0.1 µM) 98.4% and 97.6%; (compound 0.316 µM) 90.7% and 66.9%; (compound 1 µM) 91.7% and 93.4%; (compound 3.16 µM) 65.8% and 79%; (compound 10 µM) 8.51% and 6.66%. Besides, the IC50 (curve of compound) was 4.09 µM and 5.03 µM.
With `COc1c(OCCCN2CCOCC2)ccc2c3n(c(=NC(=O)c4cnc(N)nc4)nc12)CCN3`, the viability, T/C by setting is: (compound 0.00316 µM) 96% and 133%; (compound 0.01 µM) 52% and 68.5%; (compound 0.0316 µM) 29% and 55.5%; (compound 0.1 µM) 18.8% and 16.3%; (compound 0.316 µM) 7.17% and 4.92%; (compound 1 µM) 2.06% and 2.01%. Also, where the note is “curve of compound”, the IC50 is 0.0119 µM and 0.0248 µM.
As to `Cn1ncnc1[C@H]1c2n[nH]c(=O)c3cc(F)cc(c23)N[C@@H]1c1ccc(F)cc1`, the viability, T/C is, setting by setting: (compound 0.000316 µM) 65.2% and 92.2%; (compound 0.001 µM) 93.3% and 76.2%; (compound 0.00316 µM) 50.8% and 73.8%; (compound 0.01 µM) 48.2% and 62.2%; (compound 0.0316 µM) 34.8% and 42%; (compound 0.1 µM) 33.3% and 35.4%. Under “curve of compound”, the IC50 was 0.0034 µM and 0.0226 µM.
For `NC(=O)C(=Cn1cnc(-c2cc(C(F)(F)F)cc(C(F)(F)F)c2)n1)c1cncnc1`, the viability, T/C is, setting by setting: (compound 0.00949 µM) 69%; (compound 0.03 µM) 23.2%; (compound 0.0949 µM) 17.2%; (compound 0.3 µM) 8.78%; (compound 0.949 µM) 3.63%; (compound 3 µM) 2.66%. The IC50 (curve of compound) was 0.0157 µM.
